From patent publication US20060104981A1, “Prophylactic/therapeutic agent for cancer” (priority 2002, published 2006) come the findings set out here.

What all share (format): cell-based
For series [1], the system named is EZH2 (RNA) in colon cell line HCT116. As to the kind of experiment: EZH2 (RNA) expression by quantitative PCR after siRNA transfection. The conditions noted are these: 36 hours after transfection, siRNA 45 nM. From the text:
(§1) RNA Duplexes for the base sequence represented by SEQ ID NO: 3 (hereinafter briefly referred to as siRNA) were designed (SEQ ID NO: 11 and SEQ ID NO: 12) and provided for the transfection experiment using the synthetic duplexes (Qiagen, Inc.). For control siRNAs, commercially available Control (non-silencing) siRNAs (SEQ ID NO: 13 and SEQ ID NO: 14) (manufactured by Qiagen, Inc.) were used.
(§2) Colon cell line HCT116 (purchased from ATCC) and lung cancer cell line NCI-H1299 (purchased from ATCC) were used as the test cells used for the following test. Forty-eight hours before transfection of siRNAs, 5×10^5 cells were plated on a 24-well plate (manufactured by Falcon Co., Ltd.). In transfection of these siRNAs, Lipofectamine 2000 (manufactured by Invitrogen Corp.) was used in accordance with its protocol. The final concentration of siRNAs was set at 45 nM. RNA was extracted 36 hours after the transfection, following the protocol of RNeasy Mini Kit (manufactured by Qiagen, Inc.) and cDNA was prepared using TaqMan Reverse Transcription Reagents (manufactured by Applied Biosystems, Inc.). Quantitative PCR was performed on ABI PRISM™ 7900HT Sequence Detector (manufactured by Applied Biosystems, Inc.), using two primers (SEQ ID NO: 6 and SEQ ID NO: 7) and a probe (SEQ ID NO: 8), as in EXAMPLE 4.

The subject of series [2] is EZH2 (RNA) in lung cancer cell line NCI-H1299. Described as above. The conditions noted are these: 36 hours after transfection, siRNA 45 nM.
From the text: as §1, §2

A further series deals with colon cell line HCT116. Put plainly: Apoptosis (caspase 3/7 activity, Caspase Glo-3/7 assay) after siRNA transfection. The conditions noted are these: day 3 after transfection. The procedure:
as §1
(§3) Meanwhile, 1×10^3 cells were seeded on a 96-well plate (manufactured by Falcon Co., Ltd.) to assess the effect on apoptosis. Forty-eight hours later, siRNA or control siRNA to EZH2 was transfected using Lipofectamine 2000 (manufactured by Invitrogen Corp.) as described above. On day 3 after the siRNA transfection, the caspase 3/7 activity as an indicator of apoptosis was compared by the Caspase Glo-3/7 assay (manufactured by Promega Corp.).

Series [3] has as its system lung cancer cell line NCI-H1299. The description is as above. The conditions noted are these: day 3 after transfection. As to the method:
as §1, §3

Turning to “siRNA to EZH2: RNA duplexes for the base sequence of SEQ ID NO: 3; antisense strand SEQ ID NO: 11, sense strand SEQ ID NO: 12 (antisense AAGUUGAACAGAAAGCUGCTT; sense GCAGCUUUCUGUUCAACUUTT; RNA duplexes, chemistry of the tt overhangs not given here)”, the “expression of EZH2 (RNA) as compared to control siRNA (100%)” value is listed as 50% in series [1] and 13% in series [2]. In addition, the figures for the “apoptosis as compared to the control (100%)” value (in the series with colon cell line HCT116; in series [3]) were 185% and 143%, respectively.
